No end group written: not given here.
Tested on: caspase 1
Test: Caspase 1 activity assay in PMA-differentiated THP1 cells treated with LPS and ATP
Format: cell-based, human
Conditions: for anti-inflammatory activities relative to that of TR47: summary statement on exemplified TR47 fragments and variants
Method: THP1-null (THP1) cells were plated at a final concentration of 1×10^6/mL in 96 well plates and incubated with PMA (0.5 μM) for 3 hours 37° C. in supplemented RPMI. Media was subsequently changed every 24 hours for 3 days. Various subsets of wells were selected and cells were treated for 60 minutes at 37° C. in serum-free RPMI with: (A) APC (4 μg/mL), TR47 (50 μM-2 nM), scrTR47 (50 μM), SFLLRN (50 μM), TFLLRN (50 μM); (B) P3R (50 μM-500 nM), P3K (50 μM); (C) APC (4 or 1 μg/mL), TR47 (8 nM), P3R (500 nM) or TR47+P3R (8 nM and 500 nM, respectively); (D) TR47 (0-128 nM) (●)±P3R (500 nM) (□); (E) P3R (0-500 nM) (●)±TR47 (1 nM) (□). Following DPBS wash, cells were incubated with LPS (1 μg/mL) for 3 hours at 37° C. in serum-free RPMI. After a DPBS wash, cells were incubated with ATP (5 mM) in the presence or absence of 10 μM YVAD (caspase 1 inhibitor) or 2.5 μM ZVAD (pan-caspase inhibitor) for 45 minutes at 37° C., prior to performing the caspase 1 activity assay following manufacturer's directions measuring luminescence (relative luminescent units, RLU). (D & E) Experimental caspase 1 activity was normalized to YVAD (caspase 1 inhibitor) luminescence units. (A-E) Data points represent mean±S.D. of at least 3 independent experiments. *P<0.05 (vs. LPS+ATP); #P<0.05 (vs. LPS+ATP & APC, TR47 or P3R); **P<0.005 (vs. LPS+ATP & TR47+500 nM P3R); n.s. not significant.
THP1 cells were plated at a final concentration of 1×10^6/mL in 96 well plates and incubated with PMA (0.5 μM) for 3 hours 37° C. in supplemented RPMI. Media was subsequently changed every 24 hours for 3 days. Selected wells were treated with APC (4 μg/mL), (A) 50 μM or (B) 2 μM of P3R, P3Rm, P3R 51-65, P3R 51-59, P3R 54-59 or P3R 59-65 for 1 hour, washed with DPBS, and incubated with LPS (1 μg/mL) for 3 hours at 37° C. in serum-free RPMI. Cells were washed with DPBS and incubated with ATP (5 mM) in the presence or absence of 10 μM YVAD (caspase 1 inhibitor; C1i) or 2.5 μM ZVAD (pan-caspase inhibitor; pCi) for 45 minutes at 37° C., prior to performing the caspase 1 activity assay following manufacturer's directions measuring luminescence (relative luminescent units, RLU). (C) Diagram showing the PAR3 sequence, peptide sequences and relative (anti-inflammatory) activity. These include sequences of P3R (SEQ ID NO:4), P3Rm (SEQ ID NO:8), P3R 51-65 (SEQ ID NO:9), P3R 51-59 (SEQ ID NO:10), P3R 54-59 (SEQ ID NO:54) and P3R 59-65 (SEQ ID NO:55).
THP1 cells were plated at a final concentration of 1×10^6/mL in 96 well plates and incubated with PMA (0.5 μM) for 3 hours 37° C. in supplemented RPMI. Media was subsequently changed every 24 hours for 3 days. Selected wells were treated with APC (4 μg/mL), TR47, in (A) 9-mer (TR47 9-mer; NPNDKYEPF (SEQ ID NO:36)) or Ac-TR47 (Acylated TR47) at either 50 μM or 10 nM or (B) 50 μM of 16-mer-TR47, 8-mer-TR47, 6-mer-TR47, TR47 N−1, TR47 N−2, TR47 N−5, TR47AQ, TR47AD, TR47AA or TR48-54 for 1 hour, washed with DPBS, and incubated with LPS (1 μg/mL) for 3 hours at 37° C. in serum-free RPMI. Cells were washed with DPBS and incubated with ATP (5 mM) in the presence or absence of 10 μM YVAD (caspase 1 inhibitor; C1i) or 2.5 μM ZVAD (pan-caspase inhibitor; pCi) for 45 minutes at 37° C., prior to performing the caspase 1 activity assay following manufacturer's directions measuring luminescence (relative luminescent units, RLU). #P<0.001 (vs. LPS+ATP), **P<0.005 (vs. LPS+ATP), * (P<0.05 vs. LPS+ATP). (C) Diagram showing the PAR1 sequence, peptide sequences and relative (anti-inflammatory) activity. These include sequences of TR47 (SEQ ID NO:7), Ac-TR47 (SEQ ID NO:56), 16-mer-TR47 (SEQ ID NO:43), 9-mer-TR47 (SEQ ID NO:36), 8-mer-TR47 (SEQ ID NO:35), 6-mer-TR47 (SEQ ID NO:33), TR47 N−1 (SEQ ID NO:47), TR47 N−2 (SEQ ID NO:51), TR47 N−5 (SEQ ID NO:48), TR47AQ (SEQ ID NO:49), TR47AD (SEQ ID NO:52), TR47AA (SEQ ID NO:50) and TR48-54 (SEQ ID NO:53). […]

[1] = peptide 50 μM for 60 min before LPS (1 μg/mL) and ATP (5 mM), THP1 cells

Compound	caspase 1 activity [1]	anti-inflammatory activities relative to that of TR47	further results
CC(C)(O)c1coc(S(=O)(=O)NC(=O)Nc2c3c(cc4c2CCC4)CCC3)c1 [MCC950, reference compound]	–	–	caspase 1 activity (NLRP3 inhibitor MCC950 10 μM for 30 minutes after LPS, THP1-null cells treated with APC, TR47 or P3R): a significant reduction in caspase 1 activity across all treatments tested
APNDKYEPFWEDEEKNESGL [TR47ΔA]	similarly reduced caspase 1 activity	maintain substantial anti-inflammatory activities relative to that of TR47	–
Ac-TR47: Acylated TR47 (N-terminus of TR47 acylated) (Ac-NPNDKYEPF; also: N-terminal acylation, acyl group not given here)	no reduction in caspase 1 activity was observed	–	–
FPFSALEGWTGATIT [P3R 51-65]	–	–	caspase-1 activity (PAR3 peptide 0 to 16 nM in the presence or absence of 1 nM P1(47-66)): only in the presence of 1 nM P1(47-66) was a significant reduction in caspase-1 activity seen; caspase 1 activity (peptide 50 μM for 60 min before LPS (1 μg/mL) and ATP (5 mM), THP1 cells, listed as P3(51-65)): alone is anti-inflammatory at relatively high concentrations; anti-inflammatory effect (caspase-1 activity) (peptide at 200 nM): neither the isolated PAR1-derived peptide nor the isolated PAR3-derived peptide had an any anti-inflammatory effect
GAPPNSFEEFPFS [P3Rm]	a significant reduction in caspase 1 activity was observed	–	synergistic anti-inflammatory activity (caspase 1 activity) (P3Rm (0 or 16 nM) combined with TR47 (1 nM), FIG. 6A): synergy observed; caspase 1 activity (peptide 2 μM for 1 hour before LPS and ATP, THP1 cells): this effect was lost
NDKYEPFWEDEEKNESGL [TR47 N−2]	a loss in inhibition of caspase 1 activity	–	–
NPNDKY [6-mer TR47]	lost its inhibitory activity	–	–
NPNDKYEP [8-mer TR47]	significantly reduced caspase 1 activity	maintain substantive anti-inflammatory activities relative to that of TR47	–
NPNDKYEPF [9-mer]	reduced caspase 1 activity similar to the 20-mer TR47	maintain substantive anti-inflammatory activities relative to that of TR47	anti-inflammatory effect (caspase-1 activity) (peptide at 200 nM): neither the isolated PAR1-derived peptide nor the isolated PAR3-derived peptide had an any anti-inflammatory effect; anti-inflammatory effect (caspase-1 activity) (peptide at 500 nM): alone was anti-inflammatory
NPNDKYEPFWEDEEKN [16-mer TR47]	significantly reduced caspase 1 activity	maintain substantive anti-inflammatory activities relative to that of TR47	–
P3R 54-59: fragment of PAR3-derived peptide P3R, residues 54-59 (SALEGW; UniProt O00254 54-59, looked up, fragment)	only partially reduced caspase 1 activity	–	–
P3R 59-65: fragment of PAR3-derived peptide P3R, residues 59-65 (WTGATIT; UniProt O00254 59-65, looked up, fragment)	only partially reduced caspase 1 activity	–	–
PNDKYEPFWEDEEKNESGL [TR47 N−1]	still reduced caspase 1 activity	maintain substantial anti-inflammatory activities relative to that of TR47	synergistic anti-inflammatory activity (caspase 1 activity) (TR47(N−1) (0 or 4 nM) combined with 500 nM P3R, FIG. 6B): synergy observed
QPNDKYEPFWEDEEKNESGL [TR47ΔQ]	similarly reduced caspase 1 activity	maintain substantial anti-inflammatory activities relative to that of TR47	–
SFLLRN [reference compound]	neither a scrambled TR47 nor the peptides, SFLLRN or TFLLRN which resemble the novel N-terminal amino acid sequence generated by thrombin's PAR1 cleavage at Arg41 had any effect on caspase 1 activity	–	–
TFLLRN (SFLLRN; UniProt P25116 42-47, looked up, fragment) [reference compound]	neither a scrambled TR47 nor the peptides, SFLLRN or TFLLRN which resemble the novel N-terminal amino acid sequence generated by thrombin's PAR1 cleavage at Arg41 had any effect on caspase 1 activity	–	–
TR48-54: truncated TR-peptide, removing one amino acid from the N-terminus and part of the C-terminus (FEEFPFS; UniProt O00254 48-54, looked up, fragment)	did not reduce caspase 1 activity	–	–
YEPFWEDEEKNESGL [TR47 N−5]	a reduction in caspase 1 activity was observed	maintain substantial anti-inflammatory activities relative to that of TR47	–

Source: patent US20220313780A1, “METHODS AND COMPOSITIONS FOR TREATING INFLAMMATORY CONDITIONS” (THE SCRIPPS RESEARCH INSTITUTE, priority 2019, published 2022)
